In publication PMC12670405, “Second-Generation AURKA-Targeting PROTACs: Structural Optimization toward in Vivo Degradation in Neuroblastoma” (Journal of Medicinal Chemistry, 2025):
Like-named read-outs stand apart in the source and are kept apart here.

Assays:
[1] = system: NGP; assay: IncuCyte live-cell imaging, antiproliferative effect; assay type: cell-based; conditions: Homo sapiens, 72 h
Text: (§1) Human neuroblastoma cell lines NGP, IMR-32, SJNB-8, SK-N-BE(2)-C, SJNB-1, SK-N-SH and SK-N-AS, as well as benign immortalized cell lines RPE and HEK293T were either bought commercially or obtained through research laboratories. […] Screening for mycoplasma contamination occurred routinely on the cells. Human neuroblastoma cell lines SH-SY5Y_shABCB1 & SH-SY5Y_shNTC were generated by transduction with pLKO.1-ABCB1_TRCN0000059683 shRNA (Sigma MISSION SHCLND) or pLKO.1-puro NT shRNA (Sigma MISSION SHC002) vectors respectively (Supplementary Table S6), packaged using Lenti-X293T (Clontech). Transduced cells were selected with 2 μg/mL puromycin. These cells were cultured in DMEM 4.5 g/L D-Glucose, L-Glutamine and 110 mg/L Sodium Pyruvate (Gibco, #11995065) supplemented with 10% fetal bovine serum, 1× Antibiotic-Antimycotic solution (Sigma-Aldrich, #A5955) and 1× MEM nonessential amino acids (Sigma-Aldrich, #M7145). Incubation of all cells occurred at 37 °C and 5% CO2.
(§2) Neuroblastoma cells were seeded in 384-well plates at different densities ranging from 1200 to 5000 cells/well and allowed to adhere overnight. RPE and HEK293T were seeded at 200 and 600 cells/well, respectively. Compound treatment was performed using the D300e Digital Dispenser (Tecan) in duplicate or triplicate and cell confluency was monitored over time using the IncuCyte Live-cell imaging system (Sartorius). […] Mean normalized confluences were calculated from 3 individual experiments.
(§3) All dose–response curves were computed on GraphPad Prism using the Variable Slope (four parameters) equation. Absolute half-maximal degradation (DC50), growth inhibitory (GI50) and enzymatic inhibitory (IC50) concentrations, as well as inhibition constants (Ki) were derived from dose–response curves via interpolation. Statistical tests were performed on GraphPad Prism and detailed in the figure legends. Unless otherwise stated, “n” in the figure legends indicates the number of independent experiments conducted at different times.

[2] = target: T1, CRBN (Homo sapiens, UniProt Q96SW2); assay: CRBN binding assay (E3scan, Eurofins Discovery)
T1 construct: purchased Eurofins Discovery
Experimental: (§4) AURKA, AURKB and CRBN binding assays were performed by Eurofins Discovery using the KdELECT Kinase Assay Panel (AURKA and AURKB), or the E3scan Ligand Binding Assay Technology (CRBN). More information can be found on the Eurofins Discovery Web site.
(§5) Graphs were generated using GraphPad Prism Software (version 10.1.2) or RStudio (R-4.3.2). All dose–response curves were computed on GraphPad Prism using the Variable Slope (four parameters) equation. Absolute half-maximal degradation (DC50), growth inhibitory (GI50) and enzymatic inhibitory (IC50) concentrations, as well as inhibition constants (Ki) were derived from dose–response curves via interpolation. Statistical tests were performed on GraphPad Prism and detailed in the figure legends. Unless otherwise stated, “n” in the figure legends indicates the number of independent experiments conducted at different times.

[3] = Plasma stability assay; assay type: in vitro ADME, CD-1 mouse; conditions: for half-life at 1 μM: read-out: plasma t1/2
Experimental: (§6) Plasma and metabolic stability tests were performed by Eurofins Discovery. For the plasma stability assay, test compounds were incubated in CD-1 mouse plasma for 0, 0.5, 1, 1.5, and 2 h at 37 °C at a concentration of 1 μM. For the metabolic stability assay, test compounds were incubated at 37 °C in either (1) CD-1 mouse liver microsomes (MLM) (0.1 mg/mL) at a concentration of 0.1 μM for 0, 15, 30, 45, and 60 min or (2) CD-1 mouse hepatocytes (MH) (0.7 million viable cells/mL) at a concentration of 1 μM for 0, 0.5, 1, 1.5, and 2 h. At the respective time points, acetonitrile was added to the incubation mixture followed by centrifugation. Samples were analyzed by HPLC-MS/MS and peak areas were recorded for each analyte. Compound stability, expressed as the percentage of parent compound remaining, was calculated by comparing the peak area of the compound at each time point relative to that of the 0h time point. Percentage compound remaining is plotted as a function of time as a logarithmic curve. Half-life (t 1/2) is estimated from the slope of the initial linear range of the curve, assuming first-order kinetics. […] Both plasma and metabolic assay experiments were performed once with 2 replicate samples each.

[4] = Metabolic stability in mouse liver microsomes (MLM); assay type: in vitro ADME, CD-1 mouse; conditions: CD-1
Experimental: as §6

[5] = Metabolic stability in mouse hepatocytes (MH); assay type: in vitro ADME, CD-1 mouse; conditions: CD-1
Experimental: as §6

[6] = target: T2, AURKA (Homo sapiens, UniProt O14965); assay: AURKA degradation, Simple Western; assay type: cell-based; design: Representative Western blot showing levels of endogenous proteins MDR1, MYCN, AURKA, and CRBN in untreated cell lines; endogenous in cells; host or cells: NGP, IMR-32, SJNB-8, SK-N-BE(2)-C, SK-N-SH, SK-N-AS, SJNB-1, RPE, HEK293T; conditions: for pDC50: AURKA degradation; for DC50: read-out: AURKA DC50; for AURKA degradation (in words): IMR-32, 24h treatment;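 for AURKA Degradation 24h @1000nM: measured in NGP neuroblastoma cells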;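 for AURKA Degradation 24h @100nM: measured in NGP neuroblastoma cells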
T2 sequence (O14965 1-403): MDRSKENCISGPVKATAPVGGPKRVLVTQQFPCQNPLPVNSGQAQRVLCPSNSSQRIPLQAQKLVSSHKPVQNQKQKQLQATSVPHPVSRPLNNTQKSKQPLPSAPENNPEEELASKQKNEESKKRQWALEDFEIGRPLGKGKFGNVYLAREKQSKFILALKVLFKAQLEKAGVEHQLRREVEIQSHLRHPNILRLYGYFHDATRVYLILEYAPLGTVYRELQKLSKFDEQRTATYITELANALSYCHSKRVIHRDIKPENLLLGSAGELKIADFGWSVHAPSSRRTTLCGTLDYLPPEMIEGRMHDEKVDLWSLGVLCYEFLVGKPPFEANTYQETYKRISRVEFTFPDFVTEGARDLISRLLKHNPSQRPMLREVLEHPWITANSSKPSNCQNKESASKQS
Experimental: (§7) Cells were seeded in T-25 flasks at different densities ranging from 1 to 2 million cells per flask and allowed to adhere for 1–2 days. In experiments involving compound treatment, this was done by medium replacement containing the compound(s) of interest in their corresponding concentrations. In competition binding experiments, cells were first pretreated with an excess of MK-5108, thalidomide or MG-132 for 1 h by shaking gently at room temperature prior to addition of SK4454 or SK5527. All samples were normalized to contain the same percentage of DMSO as the negative DMSO controls. Cells were harvested on ice at their respective time points by scraping, washed with ice-cold PBS to collect remaining cells, and centrifuged (2500 rpm, 4 °C). A second washing and centrifugation step was performed prior to collection of the final cell pellets which were then snap-frozen in liquid nitrogen and kept frozen at −80 °C until further processing. Lysis of cell pellets occurred in cold RIPA buffer (0.5% w/v Sodium Deoxycholate, 150 mM NaCl, 50 mM TrisHCl pH 7.5, 0.1% w/v SDS, 1% w/v NP-40) supplemented with protease and phosphatase inhibitors (Roche, #11836145001, #04906845001) by rotating gently at 4 °C for 1h, followed by a centrifugation step for 10 min (10,000 rpm, 4 °C). The supernatant was collected and concentrations of the obtained protein lysates were measured using the Pierce BCA Protein Assay Kit (Thermo Fisher Scientific, #23227).
(§8) Simple Western analyses were performed with the Wes instrument (Bio-Techne) using the 12–230 kDa Wes Separation module and the EZ standard pack reagent 1 (Biotechne, #SM-W001, #PS-ST01EZ-8) following the manufacturer’s protocol. Protein lysates were loaded at 0.8 μg/μL under denaturing conditions (0.2 μg/μL for MYCN detection). Chemiluminescence peaks were generated by the Compass Software (Bio-Techne) and the area under the peaks calculated using the Gaussian fit method. Per lane, quantified data were always normalized to that of the loading control (Vinculin) prior to calculating fold changes relative to the negative DMSO control. Mean fold changes are calculated from 3 individual experiments. A list of the primary and secondary antibodies used can be found in the Supporting Information (Supplementary Table S7).
as §5

[7] = system: MYCN; assay: MYCN protein levels, Simple Western; assay type: cell-based, human; conditions: IMR-32
Experimental: as §7, §8, §5

[8] = system: IMR-32; assay: IncuCyte live-cell imaging, antiproliferative effect; assay type: cell-based; conditions: Homo sapiens, IMR-32, 72 h; read-out: GI50
Text: as §1, §2, §3

[9] = target: T2, AURKA; assay: AURKA binding assay (KINOMEscan / KdELECT, Eurofins Discovery); design: purchased Eurofins Discovery
Experimental: as §4, §5

T1 sequence (Q96SW2 whole entry): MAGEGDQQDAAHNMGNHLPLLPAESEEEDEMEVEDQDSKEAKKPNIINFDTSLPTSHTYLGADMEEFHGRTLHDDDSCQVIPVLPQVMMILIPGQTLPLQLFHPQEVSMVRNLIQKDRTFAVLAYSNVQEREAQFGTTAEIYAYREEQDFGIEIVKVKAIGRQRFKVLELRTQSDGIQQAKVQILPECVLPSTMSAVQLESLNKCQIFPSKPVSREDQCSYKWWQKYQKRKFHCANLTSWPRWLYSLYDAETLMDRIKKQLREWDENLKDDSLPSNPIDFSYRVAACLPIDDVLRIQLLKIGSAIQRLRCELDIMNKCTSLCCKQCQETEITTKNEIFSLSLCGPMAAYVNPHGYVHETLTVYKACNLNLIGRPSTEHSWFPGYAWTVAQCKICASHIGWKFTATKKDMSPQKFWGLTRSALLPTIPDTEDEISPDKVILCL

SMILES	Ki [2] [nM]	half-life at 1 μM ([3]; CD-1 mouse plasma, 1 μM, 37 °C) [h]	plasma t1/2 ([3]; plasma) [h]	microsomal CLint at 0.1 μM [4] [µL/min/mg]	hepatocyte CLint at 1 μM [5] [µL/min/1e6 cells]	AURKA Degradation 24h @100nM [6]	AURKA Degradation 24h @1000nM [6]	pDC50 [6]	Dmax ([6]; NGP, 24 h treatment) [%]	DC50 ([6]; NGP, 24 h treatment) [nM]	DC50 [6] [nM]	half-life at 1 μM ([3]; CD-1, mouse, plasma) [h]	AURKA binding (in words) [9]	AURKA degradation (in words) [6]	CRBN binding (in words) [2]	GI50 ([1]; read-out: GI50 72h, 72h) [nM]	GI50 ([1]; read-out: pGI50 (converted)) [nM]	AURKA degradation activity (in words) ([6]; NGP, 24 h treatment)	MYCN destabilization (in words) [7]	GI50 [8] [nM]
O=C1CCC(Nc2ccc(N3CCN(C4CN(C(=O)[C@]5(Cc6cccc(Nc7nccs7)n6)CC[C@@H](Oc6cccc(Cl)c6F)CC5)C4)CC3)nc2)C(=O)N1 (some centres unmarked) [PROTAC 20]	3180	> 2	> 2	738	< 4.1	90	90	8,76	94	2	1.7	–	–	–	–	19	19.1	–	–	–
O=C1CCN(Cc2ccc(C3CCN(CC4CCN(C(=O)[C@]5(Cc6cccc(Nc7nccs7)n6)CC[C@@H](Oc6cccc(Cl)c6F)CC5)CC4)CC3)nc2)C(=O)N1 [PROTAC 21]	455	> 2	> 2	186	< 4.1	78	82	7,97	85	–	10.8	–	–	–	–	46	45.7	slightly reduced degradation potency compared to SK2188	–	–
O=C1CCN(c2ccc(N3CCN(CC4CCN(C(=O)[C@]5(Cc6cccc(Nc7nccs7)n6)CC[C@@H](Oc6cccc(Cl)c6F)CC5)C4)CC3)nc2)C(=O)N1 (some centres unmarked) [PROTAC 25]	–	–	–	426	13.6	90	87	8,47	–	–	3.4	> 2	–	–	–	33	32.4	–	–	–
O=C1CCN(c2ccc(C3CCN(C4CN(C(=O)[C@]5(Cc6cccc(Nc7nccs7)n6)CC[C@@H](Oc6cccc(Cl)c6F)CC5)C4)CC3)nc2)C(=O)N1 [PROTAC 28]	–	–	–	367	13	80	78	8,52	–	–	3	> 2	–	–	–	48	47.9	–	–	–
Cc1cc(Nc2ccc(F)c(CC3(C(=O)N4CCC(F)(CN5CCC(c6ccc(N7CCC(=O)NC7=O)cn6)CC5)CC4)CCN(Cc4cccc(Cl)c4F)CC3)n2)n[nH]1 [PROTAC 37]	–	–	–	617	4.5	84	86	–	–	–	–	> 2	–	–	–	45	44.7	–	–	–

Now from value to compound, other results behind:

Ki [2] [nM]	half-life at 1 μM ([3]; CD-1 mouse plasma, 1 μM, 37 °C) [h]	plasma t1/2 ([3]; plasma) [h]	microsomal CLint at 0.1 μM [4] [µL/min/mg]	hepatocyte CLint at 1 μM [5] [µL/min/1e6 cells]	AURKA Degradation 24h @100nM [6]	AURKA Degradation 24h @1000nM [6]	pDC50 [6]	Dmax ([6]; NGP, 24 h treatment) [%]	DC50 ([6]; NGP, 24 h treatment) [nM]	DC50 [6] [nM]	half-life at 1 μM ([3]; CD-1, mouse, plasma) [h]	AURKA binding (in words) [9]	AURKA degradation (in words) [6]	CRBN binding (in words) [2]	SMILES	GI50 ([1]; read-out: GI50 72h, 72h) [nM]	GI50 ([1]; read-out: pGI50 (converted)) [nM]	AURKA degradation activity (in words) ([6]; NGP, 24 h treatment)	MYCN destabilization (in words) [7]	GI50 [8] [nM]
–	–	–	–	–	–	–	–	–	–	–	–	inability to bind	failed to degrade AURKA	–	Cc1cc(N(C)c2ccc(F)c(CC3(C(=O)N4CCC(F)(CN5CCN(c6ccc(N7CCC(=O)NC7=O)cn6)CC5)CC4)CCN(Cc4cccc(Cl)c4F)CC3)n2)n[nH]1 [SK5527-AURi]	–	–	–	failed to destabilize MYCN	~9000
–	–	–	–	–	–	–	–	–	–	–	–	–	failed to degrade AURKA	inability to bind	Cc1cc(Nc2ccc(F)c(CC3(C(=O)N4CCC(F)(CN5CCN(c6ccc(N7CCC(=O)N(C)C7=O)cn6)CC5)CC4)CCN(Cc4cccc(Cl)c4F)CC3)n2)n[nH]1 [SK5527-CRBi]	–	–	–	failed to destabilize MYCN	~500
